Test results: patent US8748481B2, “Method for treating gastrointestinal disorder” (Sucampo AG, priority 2004, dated 2014)

Experiments:
[1] = system: patients with chronic constipation; assay: Randomized withdrawal study, post-treatment response after 4 weeks of active treatment (Example 2); format: in vivo, human
Description: Multi-center, double-blind, randomized, placebo-controlled study was performed to assess post-treatment response, in a portion of the total population, after four (4) weeks of active treatment (48 μg Compound A total daily dose) and three (3) weeks randomized withdrawal period. […] After 14-day drug-free washout period, they received orally 48 μg (total daily dose) of Compound A for 28 days followed by either 0 or 48 μg (total daily dose) of Compound A for 21 days.
In this study, the following parameters were evaluated. • 1) Bowel movements per week • 2) Abdominal bloating • 3) Abdominal discomfort • 4) Severity of Constipation • 5) Straining • 6) Consistency
Each parameter (Abdominal bloating, Abdominal discomfort, Severity of Constipation or Straining) was evaluated on the scale of: 0 (absent), 1 (mild), 2 (moderate), 3 (severe) and 4 (very severe) in the patients. Consistency was evaluated on a scale of: 0 (very loose), 1 (loose), 2 (normal), 3 (hard) and 4 (very hard, little balls)

[2] = Serum electrolyte balance, open-label 24/48-week safety study (Example 1); format: in vivo, human
Description: Multi-center, open-label study was performed to evaluate the safety of 48 μg of Compound A (13,14-dihydro-15-keto-16,16-difluoro-PGE1) (24 μg of Compound A b.i.d) when administered daily for 24 weeks (6 months) or 48 weeks (12 months) to subjects with occasional constipation. […] After 14-day drug-free washout period, they received 48 μg of Compound A (24 μg of Compound A b.i.d) orally for 48 weeks.
Sodium, potassium, chloride, calcium, magnesium and phosphorus ion concentrations in serum of patients (n=299) were measured before, and at 6, 12, 18, 24, 30, 36, 48 and 50 weeks after the start of the Compound A treatment.
The laboratory standard values for the panel of electrolytes were taken from the normal reference ranges for the central laboratory.

[3] = 48 μg/day for 28 days, then 3 weeks withdrawal
[4] = Week 50 after start of 48-week treatment

Structure (SMILES): CCCCC(F)(F)C(=O)CCC1C(O)CC(=O)C1CCCCCCC(=O)O (stereo not shown) [Compound A, 13,14-dihydro-15-keto-16,16-difluoro-PGE1]
- Quality of life of the patients ([1]; 48 μg/day): improved
- Efficacy after stopping the treatment (FIGS. 7 to 12) [1, 3]: sustained
- Rebound effect after discontinuation of treatment (FIGS. 7 to 12) [1, 3]: substantially no rebound effect
- Effect on sodium, potassium, chloride, calcium, magnesium and phosphorus ion concentration in serum ([2]; 48 μg/day, long-term administration up to 48 weeks): no effect
- Mean serum Calcium ([2]; Week 0 (before treatment)): 9.61 mg/dL
- Mean serum Chloride ([2]; Week 0 (before treatment)): 103.08 mmol/L
- Mean serum Magnesium ([2]; Week 0 (before treatment)): 2.18 mg/dL
- Mean serum Phosphorus ([2]; Week 0 (before treatment)): 3.65 mg/dL
- Mean serum Potassium ([2]; Week 0 (before treatment)): 4.28 mmol/L
- Mean serum Sodium ([2]; Week 0 (before treatment)): 141.00 mmol/L
- Mean serum Calcium ([2]; Week 6, 48 μg/day oral): 9.90 mg/dL
- Mean serum Chloride ([2]; Week 6, 48 μg/day oral): 103.00 mmol/L
- Mean serum Magnesium ([2]; Week 6, 48 μg/day oral): 2.23 mg/dL
- Mean serum Phosphorus ([2]; Week 6, 48 μg/day oral): 3.20 mg/dL
- Mean serum Potassium ([2]; Week 6, 48 μg/day oral): 4.28 mmol/L
- Mean serum Sodium ([2]; Week 6, 48 μg/day oral): 142.25 mmol/L
- Mean serum Calcium ([2]; Week 12, 48 μg/day oral): 9.71 mg/dL
- Mean serum Chloride ([2]; Week 12, 48 μg/day oral): 103.08 mmol/L
- Mean serum Magnesium ([2]; Week 12, 48 μg/day oral): 2.24 mg/dL
- Mean serum Phosphorus ([2]; Week 12, 48 μg/day oral): 3.57 mg/dL
- Mean serum Potassium ([2]; Week 12, 48 μg/day oral): 4.20 mmol/L
- Mean serum Sodium ([2]; Week 12, 48 μg/day oral): 139.78 mmol/L
- Mean serum Calcium ([2]; Week 18, 48 μg/day oral): 9.30 mg/dL
- Mean serum Chloride ([2]; Week 18, 48 μg/day oral): 105.50 mmol/L
- Mean serum Magnesium ([2]; Week 18, 48 μg/day oral): 2.35 mg/dL
- Mean serum Phosphorus ([2]; Week 18, 48 μg/day oral): 3.55 mg/dL
- Mean serum Potassium ([2]; Week 18, 48 μg/day oral): 4.40 mmol/L
- Mean serum Sodium ([2]; Week 18, 48 μg/day oral): 141.50 mmol/L
- Mean serum Calcium ([2]; Week 24, 48 μg/day oral): 9.77 mg/dL
- Mean serum Chloride ([2]; Week 24, 48 μg/day oral): 102.56 mmol/L
- Mean serum Magnesium ([2]; Week 24, 48 μg/day oral): 2.21 mg/dL
- Mean serum Phosphorus ([2]; Week 24, 48 μg/day oral): 3.61 mg/dL
- Mean serum Potassium ([2]; Week 24, 48 μg/day oral): 4.19 mmol/L
- Mean serum Sodium ([2]; Week 24, 48 μg/day oral): 139.21 mmol/L
- Mean serum Calcium ([2]; Week 30, 48 μg/day oral): 9.10 mg/dL
- Mean serum Chloride ([2]; Week 30, 48 μg/day oral): 100.00 mmol/L
- Mean serum Magnesium ([2]; Week 30, 48 μg/day oral): 2.30 mg/dL
- Mean serum Phosphorus ([2]; Week 30, 48 μg/day oral): 2.50 mg/dL
- Mean serum Potassium ([2]; Week 30, 48 μg/day oral): 4.30 mmol/L
- Mean serum Sodium ([2]; Week 30, 48 μg/day oral): 136.00 mmol/L
- Mean serum Calcium ([2]; Week 36, 48 μg/day oral): 9.67 mg/dL
- Mean serum Chloride ([2]; Week 36, 48 μg/day oral): 102.51 mmol/L
- Mean serum Magnesium ([2]; Week 36, 48 μg/day oral): 2.19 mg/dL
- Mean serum Phosphorus ([2]; Week 36, 48 μg/day oral): 3.58 mg/dL
- Mean serum Potassium ([2]; Week 36, 48 μg/day oral): 4.18 mmol/L
- Mean serum Sodium ([2]; Week 36, 48 μg/day oral): 138.94 mmol/L
- Mean serum Calcium ([2]; Week 48, 48 μg/day oral): 9.66 mg/dL
- Mean serum Chloride ([2]; Week 48, 48 μg/day oral): 102.88 mmol/L
- Mean serum Magnesium ([2]; Week 48, 48 μg/day oral): 2.14 mg/dL
- Mean serum Phosphorus ([2]; Week 48, 48 μg/day oral): 3.50 mg/dL
- Mean serum Potassium ([2]; Week 48, 48 μg/day oral): 4.20 mmol/L
- Mean serum Sodium ([2]; Week 48, 48 μg/day oral): 139.59 mmol/L
- Mean serum Calcium [2, 4]: 9.47 mg/dL
- Mean serum Chloride [2, 4]: 102.67 mmol/L
- Mean serum Magnesium [2, 4]: 2.31 mg/dL
- Mean serum Phosphorus [2, 4]: 3.54 mg/dL
- Mean serum Potassium [2, 4]: 4.49 mmol/L
- Mean serum Sodium [2, 4]: 139.11 mmol/L
